Results: patent US6632962B2, “Caspase inhibitors and uses thereof” (Vertex Pharmaceuticals Incorporated, priority 1999, dated 2003)
Structures can show the parent of a compound that is named as a salt.

molecular target: T1, Caspase-9 (Homo sapiens, UniProt P55211); test: Caspase-9 assay (fluorogenic substrate cleavage, kinact); format: biochemical; details: second order rate constant of inactivation; 0.00125 units/ml caspase-9, 50 μM AcDEVD-AMC, buffer with 8% glycerol
T1 construct: purchased Europa Bioproducts UBC2088
T1 sequence (P55211 1-315 limits assumed): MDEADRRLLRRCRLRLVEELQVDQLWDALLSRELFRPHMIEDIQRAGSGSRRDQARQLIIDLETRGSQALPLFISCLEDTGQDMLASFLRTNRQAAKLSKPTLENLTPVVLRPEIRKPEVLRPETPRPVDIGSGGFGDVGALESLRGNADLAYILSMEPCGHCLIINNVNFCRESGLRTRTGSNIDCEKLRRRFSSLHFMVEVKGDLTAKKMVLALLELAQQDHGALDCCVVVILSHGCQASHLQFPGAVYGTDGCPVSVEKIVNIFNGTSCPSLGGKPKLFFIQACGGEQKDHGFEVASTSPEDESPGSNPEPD
T1 sequence (P55211 331-416 limits assumed): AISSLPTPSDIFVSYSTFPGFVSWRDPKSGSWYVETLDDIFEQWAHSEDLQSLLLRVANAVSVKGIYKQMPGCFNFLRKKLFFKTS
Description: (§1) Assay Buffer: 10 mM Tris-HCI (Sigma T-3038), 1 mM dithiothreitol (DTT) (Calbiochem 233153), 0.1% CHAPS (Sigma C-3023), pH 7.5. Purified recombinant human Caspase-8. Substrate (acetyl-Asp-Glu-Val-Asp-amino-4-methyl coumarin, ACDEVD-AMC) (Bachem, I-1660). Serial dilution of test compound in DMSO (Sigma D-2650).
(§2) 70 microliters (μl) assay buffer, 20 μl of substrate and 5 μl of the inhibitor solution were added to the wells of a 96-well microtiter assay plate giving a final concentration of 1.5 nM caspase-8 and 10 μM substrate. The plate was incubated at 50° C. for 15 minutes in a thermostatically controlled plate warmer (Wesbart, UK). The reaction was then started by the addition of enzyme directly to the wells. The reaction was monitored continuously for 20 minutes in a fluorimeter (SPECTRAmax Gemini, Molecular Devices) at 37° C. by following the release of AMC fluorophor at an excitation wavelength of 390 nm and an emission wavelength of 460 nm. For each well, the observed rate of enzyme inactivation at a particular inhibitor concentration, kobs, was computed by direct fits of the data to the equation derived by Thornberry et al., (1994, Biochemistry 33, […]) using a non-linear least squares analysis computer program (PRISM 2.0, Graph Pad Software). To obtain the second order rate constant, kinact, kobs values were plotted against their respective inhibitor concentrations and kinact values were subsequently calculated by computerized linear regression.
Caspase-9 was purchased from Europa Bioproducts (order No UBC2088) and used with a concentration of 0.00125 units/ml (units defined by the manufacturer as amount of enzyme that cleaves 1 nmol of LEHD-pNA in 1 h at 37° C.). The assay was run as described for the caspase-8 assay except that the caspase-9 buffer additionally contained 8% glycerol (and the substrate concentration is 50 μM AcDEVD-AMC as opposed to 10 μM for caspase-8).

SMILES	Kinact (1/M/s), Caspase-9 Activity
O=C(O)CC(NC(=O)c1ccccc1)C(=O)CF (centres unmarked) [Example 1, 3-Benzoylamino-5-fluoro-4-oxo-pentanoic Acid]	A (kinact (1/M/s) greater than 60,000)
O=C(O)CC(NC(=O)c1cccc(-c2ccccc2)c1)C(=O)CF (centres unmarked) [Example 14, 3-(Biphenyl-3-carboxamido)-5-fluoro-4-oxo-pentanoic Acid]	B (kinact less than 60,000)
O=C(O)CC(NC(=O)c1ccsc1)C(=O)CF (centres unmarked) [Example 29, 5-Fluoro-4-oxo-3-(thienyl-3-carboxamido)-pentanoic Acid]	B (kinact less than 60,000)

molecular target: recombinant, purified human caspase-8 (Homo sapiens, UniProt Q14790); test: Caspase-8 assay (fluorogenic substrate cleavage, kinact); format: biochemical; details: second order rate constant of inactivation; 1.5 nM caspase-8, 10 μM AcDEVD-AMC, 37° C.
Description: The assay for caspase-8 activity was based on the cleavage of a fluorogenic substrate by recombinant, purified human caspase-8 essentially according to the method described by Garcia-Calvo et al (1998) J. Biol. Chem. 273:32608-32613.
as §1, §2

recombinant, purified human caspase-8, sequence (Q14790 217-374 limits assumed): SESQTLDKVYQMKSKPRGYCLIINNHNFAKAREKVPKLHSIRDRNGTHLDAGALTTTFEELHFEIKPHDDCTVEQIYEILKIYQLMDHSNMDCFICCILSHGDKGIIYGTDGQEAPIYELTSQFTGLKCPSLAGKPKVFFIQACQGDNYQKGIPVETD
recombinant, purified human caspase-8, sequence (Q14790 385-479 limits assumed): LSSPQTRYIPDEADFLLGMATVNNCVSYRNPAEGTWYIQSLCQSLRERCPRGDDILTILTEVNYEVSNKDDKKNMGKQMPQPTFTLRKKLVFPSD

SMILES	Kinact (1/M/s), Caspase-8 Activity
O=C(O)CC(NC(=O)c1cc2ccccc2[nH]1)C(=O)CF (centres unmarked) [Example 31, 5-Fluoro-3-(1H-indolyl-2-carboxamido)-4-oxo-pentanoi c Acid]	C (kinact less than 40,000)
O=C(O)CC(NC(=O)c1ccccc1)C(=O)CF (centres unmarked) [Example 1, 3-Benzoylamino-5-fluoro-4-oxo-pentanoic Acid]	A (kinact (1/M/s) greater than 60,000)
O=C(O)CC(NC(=O)c1cccnc1)C(=O)CF (centres unmarked) [Example 25, 5-Fluoro-4-oxo-3-(pyridyl-3-carboxamido)-pentanoic Acid Trifluoroacetate Salt]	B (kinact between 40,000 and 60,000)
COc1cccc(C(=O)NC(CC(=O)O)C(=O)CF)c1 (centres unmarked) [Example 16, 5-Fluoro-3-(3-methoxybenzoylamino)-4-oxo-pentanoic Acid]	B (kinact between 40,000 and 60,000)
O=C(O)CC(NC(=O)c1cccs1)C(=O)CF (centres unmarked) [Example 28, 5-Fluoro-4-oxo-3-(thienyl-2-carboxamido)-pentanoic Acid]	C (kinact less than 40,000)
O=C(O)CC(NC(=O)c1ccc(-c2ccccc2)o1)C(=O)CF (centres unmarked) [Example 34, 5-Fluoro-3-(5-phenyl-furyl-2-carboxamido)-4-oxo-pentanoic Acid]	A (kinact (1/M/s) greater than 60,000)
O=C(O)CC(NC(=O)c1cccc(Oc2ccccc2)c1)C(=O)CF (centres unmarked) [Example 37, 5-Fluoro-4-oxo-3-(3-phenoxybenzoylamino)-pentanoic Acid]	A (kinact (1/M/s) greater than 60,000)
O=C(O)CC(NC(=O)c1cccc(F)c1)C(=O)CF (centres unmarked) [Example 10, 5-Fluoro-3-(3-fluorobenzoylamino)-4-oxo-pentanoic Acid]	B (kinact between 40,000 and 60,000)
O=C(O)CC(NC(=O)c1ccccc1Cl)C(=O)CF (centres unmarked) [Example 4, 3-(2-Chlorobenzoylamino)-5-fluoro-4-oxo-pentanoic Acid]	C (kinact less than 40,000)
N#Cc1cccc(C(=O)NC(CC(=O)O)C(=O)CF)c1 (centres unmarked) [Example 19, 3-(3-Cyanobenzoylamino)-5-fluoro-4-oxo-pentanoic Acid]	B (kinact between 40,000 and 60,000)
O=C(O)CC(NC(=O)c1cccc2ccccc12)C(=O)CF (centres unmarked) [Example 22, 5-Fluoro-3-(naphthyl-1-carboxamido)-4-oxo-pentanoic acid]	B (kinact between 40,000 and 60,000)
O=C(O)CC(NC(=O)c1ccc(Cl)c(Cl)c1)C(=O)CF (centres unmarked) [Example 7, 3-(3,4-Dichlorobenzoylamino)-5-fluoro-4-oxo-pentanoic Acid]	B (kinact between 40,000 and 60,000)
O=C(O)CC(NC(=O)c1ccc(C(F)(F)F)cc1)C(=O)CF (centres unmarked) [Example 13, 5-Fluoro-3-(4-trifluoromethylbenzoylamino)-4-oxo-pent anoic Acid]	C (kinact less than 40,000)

tested on: Jurkat E6.1 cells; test: Anti-Fas induced apoptosis assay (DNA fragmentation); format: cell-based; details: Homo sapiens, anti-Fas antibody CH-11 10 ng/ml, 16-18 hrs, DNA fragmentation OD405
Excerpt: Cellular apoptosis may be induced by the binding of Fas ligand (FasL) to its receptor, CD95 (Fas). CD95 is one of a family of related receptors, known as death receptors, which can trigger apoptosis in cells via activation of the caspase enzyme cascade. The process is initiated by the binding of the adapter molecule FADD/MORT-1 to the cytoplasmic domain of the CD-95 receptor-ligand complex. Caspase-8 then binds FADD and becomes activated, initiating a cascade of events that involve the activation of downstream caspases and subsequent cellular apoptosis. Apoptosis can also be induced in cells expressing CD95 eg the Jurkat E6.1 T cell lymphoma cell line, using an antibody, rather than FasL, to crosslink the cell surface CD95. Anti-Fas-induced apoptosis is also triggered via the activation of caspase-8. This provides the basis of a cell-based assay to screen compounds for inhibition of the caspase-8-mediated apoptotic pathway.
Jurkat E6.1 cells are cultured in complete medium consisting of RPMI-1640 (Sigma No)+10% foetal calf serum (Gibco BRL No.10099-141)+2 mM L-glutamine (Sigma No. G-7513). The cells are harvested in log phase of growth. 100 ml Cells at 5-8×10^5 cells/ml are transferred to sterile 50 ml Falcon centrifuge tubes and centrifuged for 5 minutes at 100× g at room temperature. The supernatant is removed and the combined cell pellets resuspended in 25 ml of complete medium. The cells are counted and the density adjusted to 2×10^6 cells/ml with complete medium.
The test compound was dissolved in dimethyl sulfoxide (DMSO)(Sigma No. D-2650) to give a 100 mM stock solution. This was diluted to 400 μM in complete medium, then serially diluted in a 96-well plate prior to addition to the cell assay plate.
100-μl of the cell suspension ([…]) were added to each well of a sterile 96-well round-bottomed cluster plate (Costar No. 3790). 50 μl of compound solution at the appropriate dilution and 50 μl of anti-Fas antibody, clone CH-11 (Kamiya No.MC-060) at a final concentration of 10 ng/ml, were added to the wells. Control wells were set up minus antibody and minus compound but with a serial dilution of DMSO as vehicle control. The plates were incubated for 16-18 hrs at 37° C. in 5% CO2 and 95% humidity.
Apoptosis of the cells was measured by the quantitation of DNA fragmentation using a ‘Cell Death Detection Assay’ from Boehringer-Mannheim, No. 1544 675. After incubation for 16-18 hrs the assay plates were centrifuged at 100× g at room temperature for 5 minutes. 150 μl of the supernatant were removed and replaced by 150 μl of fresh complete medium. The cells were then harvested and 200 μl of the lysis buffer supplied in the assay kit were added to each well. The cells were triturated to ensure complete lysis and incubated for 30 minutes at 4° C. The plates were then centrifuged at 1900× g for 10 minutes and the supernatants diluted 1:20 in the incubation buffer provided. 100 μl of this solution were then assayed exactly according to the manufacturer's instructions supplied with the kit. OD405 nm were measured 20 minutes after addition of the final substrate in a SPECTRAmax Plus plate reader (molecular Devices). OD405 nm was plotted versus compound concentration and the IC50 values for the compounds were calculated using the curve-fitting program SOFTmax Pro (Molecular Devices) using the four parameter fit option.

SMILES	IC50 [nM]
O=C(O)CC(NC(=O)c1cc2ccccc2[nH]1)C(=O)CF (centres unmarked) [Example 31, 5-Fluoro-3-(1H-indolyl-2-carboxamido)-4-oxo-pentanoi c Acid]	> 1000
O=C(O)CC(NC(=O)c1ccccc1)C(=O)CF (centres unmarked) [Example 1, 3-Benzoylamino-5-fluoro-4-oxo-pentanoic Acid]	< 200
O=C(O)CC(NC(=O)c1cccnc1)C(=O)CF (centres unmarked) [Example 25, 5-Fluoro-4-oxo-3-(pyridyl-3-carboxamido)-pentanoic Acid Trifluoroacetate Salt]	< 200
COc1cccc(C(=O)NC(CC(=O)O)C(=O)CF)c1 (centres unmarked) [Example 16, 5-Fluoro-3-(3-methoxybenzoylamino)-4-oxo-pentanoic Acid]	< 200
O=C(O)CC(NC(=O)c1cccs1)C(=O)CF (centres unmarked) [Example 28, 5-Fluoro-4-oxo-3-(thienyl-2-carboxamido)-pentanoic Acid]	< 200
O=C(O)CC(NC(=O)c1ccc(-c2ccccc2)o1)C(=O)CF (centres unmarked) [Example 34, 5-Fluoro-3-(5-phenyl-furyl-2-carboxamido)-4-oxo-pentanoic Acid]	200 to 1000
O=C(O)CC(NC(=O)c1cccc(Oc2ccccc2)c1)C(=O)CF (centres unmarked) [Example 37, 5-Fluoro-4-oxo-3-(3-phenoxybenzoylamino)-pentanoic Acid]	< 200
O=C(O)CC(NC(=O)c1cccc(F)c1)C(=O)CF (centres unmarked) [Example 10, 5-Fluoro-3-(3-fluorobenzoylamino)-4-oxo-pentanoic Acid]	< 200
O=C(O)CC(NC(=O)c1ccccc1Cl)C(=O)CF (centres unmarked) [Example 4, 3-(2-Chlorobenzoylamino)-5-fluoro-4-oxo-pentanoic Acid]	< 200
N#Cc1cccc(C(=O)NC(CC(=O)O)C(=O)CF)c1 (centres unmarked) [Example 19, 3-(3-Cyanobenzoylamino)-5-fluoro-4-oxo-pentanoic Acid]	200 to 1000
O=C(O)CC(NC(=O)c1cccc2ccccc12)C(=O)CF (centres unmarked) [Example 22, 5-Fluoro-3-(naphthyl-1-carboxamido)-4-oxo-pentanoic acid]	< 200
O=C(O)CC(NC(=O)c1ccc(Cl)c(Cl)c1)C(=O)CF (centres unmarked) [Example 7, 3-(3,4-Dichlorobenzoylamino)-5-fluoro-4-oxo-pentanoic Acid]	200 to 1000
O=C(O)CC(NC(=O)c1ccc(C(F)(F)F)cc1)C(=O)CF (centres unmarked) [Example 13, 5-Fluoro-3-(4-trifluoromethylbenzoylamino)-4-oxo-pent anoic Acid]	> 1000
